# Laboratory results: publication PMC7753147, “High-throughput determination of protein affinities using unmodified peptide libraries in nanomolar scale” (iScience, 2020)
# Experiments:
# FL-geph = assay: µSPOT peptide microarray binding assay with full-length geph
# native geph = assay: µSPOT peptide microarray binding assay with native geph from mouse brain lysate
# gephE = assay: µSPOT peptide microarray binding assay with recombinant gephE
# [1] = µSPOT full positional scan of GlyRβ 15-mer DLRSNDFSIVGSLPR, intensity normalised to wild-type sequence (= 1)
# [2] = µSPOT full positional scan of GlyRβ 15-mer DLRSNDFSIVGSLPR, native geph, intensity normalised to wild-type sequence (= 1)
# [3] = µSPOT peptide microarray, GlyRβ full positional scan, intensity normalised to wild-type sequence DLRSNDFSIVGSLPR (=1)
# [4] = µSPOT peptide microarray, GlyRβ full positional scan, native geph from mouse brain lysate, intensity normalised to wild-type sequence DLRSNDFSIVGSLPR (=1)
# [5] = µSPOT peptide microarray, GlyRβ full positional scan, recombinant gephE, intensity normalised to wild-type sequence DLRSNDFSIVGSLPR (=1)
Sequence,Fl-geph Binding Intensity [norm.] (FL-geph; [1]),Native geph Binding Intensity [norm.] (native geph; [2]),gephE Binding Intensity [norm.] (gephE; [1]),Fl-geph Binding Intensity [norm.] (FL-geph; [3]),Native geph Binding Intensity [norm.] (native geph; [4]),gephE Binding Intensity [norm.] (gephE; [5])
DLRSNDFSIVGSLPK [GlyRβ_Full_Positional_Scan_294],1.24,0.71,0.92,–,–,–
DLRSNDFSIVGSLHR [GlyRβ_Full_Positional_Scan_273],1.08,0.55,0.62,–,–,–
"DLRSNDFSIVYSLPR [GlyRβ_Full_Positional_Scan_209, GlyR β 414-428 variant G424Y]",–,–,–,0.48,0.2,0.41
DLRSNDFSIVGSLPP [GlyRβ_Full_Positional_Scan_285],1.03,1.08,1.02,–,–,–
GLRSNDFSIVGSLPR [GlyRβ_Full_Positional_Scan_002],–,–,–,1.03,0.75,1.01
DLRINDFSIVGSLPR [GlyRβ_Full_Positional_Scan_063],–,–,–,0.91,1.05,0.92
DLRSNDFSIVGMLPR [GlyRβ_Full_Positional_Scan_238],0.88,0.89,0.77,–,–,–
DLRSNAFSIVGSLPR [GlyRβ_Full_Positional_Scan_101],–,–,–,1.04,0.77,0.98
"DLRSNDFSNVGSLPR [GlyRβ_Full_Positional_Scan_179, GlyR β 414-428 variant I422N]",–,–,–,0.57,0.42,0.6
"DLRSNDPSIVGSLPR [GlyRβ_Full_Positional_Scan_125, GlyR β 414-428 variant F420P]",–,–,–,0.65,0.34,0.54
"DLRSNDFNIVGSLPR [GlyRβ_Full_Positional_Scan_159, GlyR β 414-428 variant S421N]",–,–,–,1.03,0.64,0.72
DLRKNDFSIVGSLPR [GlyRβ_Full_Positional_Scan_074],–,–,–,0.94,1.05,0.92
"DLRSNDASIVGSLPR [GlyRβ_Full_Positional_Scan_121, GlyR β 414-428 variant F420A]",–,–,–,0.53,0.32,0.48
DIRSNDFSIVGSLPR [GlyRβ_Full_Positional_Scan_023],–,–,–,1.12,1.16,0.95
"DLRSNDFSIVVSLPR [GlyRβ_Full_Positional_Scan_206, GlyR β 414-428 variant G424V]",–,–,–,0.42,0.17,0.43
DLCSNDFSIVGSLPR [GlyRβ_Full_Positional_Scan_057],–,–,–,1.14,1.41,0.88
DLRSNDFSIVGNLPR [GlyRβ_Full_Positional_Scan_239],1.17,1.16,0.74,–,–,–
DLRSNDFSIVGSLWR [GlyRβ_Full_Positional_Scan_268],0.72,0.32,0.61,–,–,–
